Source: US6355799B1, “Substituted benzene compounds, process for their preparation, and herbicidal and defoliant compositions containing them” (ISK Americas Incorporated, priority 1997, dated 2002)

Legend:
Format in all cases: in vivo
[1] = test system: redroot pigweed (Amaranthus retroflexus, AMARE); experiment: Pre-emerge test, greenhouse herbicide activity screening; conditions: for phytotoxicity rating AMARE: pre-emerge, 14 days after application, scale 0-100; for Pre-emerge Herbicidal Activity AMARE: phytotoxicity rating 0-100, 14 days after application
Summary of the method: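 Sandy loam pots; pre-emerge: sown 1 d pre-spray, surface-watered after, then bottom-watered. Post-emerge: sown 8–21 d before, 2–3 leaf stage, + 0.25% v/v NIS, bottom-watered. Acetone, 187 l/ha track spray, 15–1000 g ai/ha. 0–100 injury score, day 14.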

[2] = test system: barnyardgrass (Echinochloa crus-galli, ECHCG); experiment: as above; conditions: for phytotoxicity rating ECHCG: pre-emerge, 14 days after application, scale 0-100; for Pre-emerge Herbicidal Activity ECHCG: phytotoxicity rating 0-100, 14 days after application
Summary of the method: (§1)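 Compounds in acetone were track-sprayed at 187 l/ha, 15–1000 g ai/ha, onto sandy loam pots. Pre-emerge seeds were sown one day before spraying, with surface watering afterwards. Post-emerge plants were at the 2–3 leaf stage and sprayed with 0.25% v/v non-ionic surfactant. Injury was rated 0–100 at 14 days.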

[3] = test system: green foxtail (Setaria viridis, SETVI); experiment: as above; conditions: for phytotoxicity rating SETVI: pre-emerge, 14 days after application, scale 0-100; for Pre-emerge Herbicidal Activity SETVI: phytotoxicity rating 0-100, 14 days after application
Summary of the method: as §1

[4] = test system: ivyleaf morningglory (Ipomoea hederacea, IPOHE); experiment: as above; conditions: for phytotoxicity rating IPOHE: pre-emerge, 14 days after application, scale 0-100; for Pre-emerge Herbicidal Activity IPOHE: phytotoxicity rating 0-100, 14 days after application
Summary of the method: as §1

[5] = test system: johnsongrass (Sorghum halepense, SORHA); experiment: as above; conditions: for phytotoxicity rating SORHA: pre-emerge, 14 days after application, scale 0-100; for Pre-emerge Herbicidal Activity SORHA: phytotoxicity rating 0-100, 14 days after application
Summary of the method: as §1

[6] = test system: lambsquarters (Chenopodium album, CHEAL); experiment: as above; conditions: for phytotoxicity rating CHEAL: pre-emerge, 14 days after application, scale 0-100; for Pre-emerge Herbicidal Activity CHEAL: phytotoxicity rating 0-100, 14 days after application
Summary of the method: as §1

[7] = test system: large crabgrass (Digitaria sanguinalis, DIGSA); experiment: as above; conditions: for phytotoxicity rating DIGSA: pre-emerge, 14 days after application, scale 0-100; for Pre-emerge Herbicidal Activity DIGSA: phytotoxicity rating 0-100, 14 days after application
Summary of the method: as §1

[8] = test system: sicklepod (Cassia obtusifolia, CASOB); experiment: as above; conditions: for phytotoxicity rating CASOB: pre-emerge, 14 days after application, scale 0-100; for Pre-emerge Herbicidal Activity CASOB: phytotoxicity rating 0-100, 14 days after application
Summary of the method: as §1

[9] = test system: velvetleaf (Abutilon theophrasti, ABUTH); experiment: as above; conditions: for phytotoxicity rating ABUTH: pre-emerge, 14 days after application, scale 0-100; for Pre-emerge Herbicidal Activity ABUTH: phytotoxicity rating 0-100, 14 days after application
Summary of the method: as §1

[10] = test system: field corn (Zea mays L., var. Dekalb 535, CORN); experiment: Pre-emerge test, crop safety; conditions: for phytotoxicity rating CORN (crop damage): pre-emerge, 14 days after application, scale 0-100; for Pre-emerge Herbicidal Activity CORN: crop damage rating 0-100, 14 days after application
Summary of the method: as §1

[11] = test system: upland rice (Oryza sp., var. Tebonnet, RICE); experiment: Pre-emerge test, crop safety; conditions: for phytotoxicity rating RICE (crop damage): pre-emerge, 14 days after application, scale 0-100; for Pre-emerge Herbicidal Activity RICE: crop damage rating 0-100, 14 days after application
Summary of the method: as §1

[12] = test system: barnyardgrass (Echinochloa crus-galli, ECHCG); experiment: Post-emerge test, greenhouse herbicide activity screening; conditions: post-emerge, 14 days after application, rating scale 0-100
Summary of the method: (§2)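 Compounds in acetone were track-sprayed at 15-1000 g ai/ha (187 l/ha) on sandy loam pots: pre-emerge one day after seeding, post-emerge at 2-3 leaf stage with 0.25% v/v non-ionic surfactant. Phytotoxicity was rated 14 days later on a 0 (no damage) to 100 (complete death) scale.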

[13] = test system: green foxtail (Setaria viridis, SETVI); experiment: as above; conditions: post-emerge, 14 days after application, rating scale 0-100
Summary of the method: as §2

[14] = test system: ivyleaf morningglory (Ipomoea hederacea, IPOHE); experiment: as above; conditions: post-emerge, 14 days after application, rating scale 0-100
Summary of the method: as §2

[15] = test system: johnsongrass (Sorghum halepense, SORHA); experiment: as above; conditions: post-emerge, 14 days after application, rating scale 0-100
Summary of the method: as §2

[16] = test system: lambsquarters (Chenopodium album, CHEAL); experiment: as above; conditions: post-emerge, 14 days after application, rating scale 0-100
Summary of the method: as §2

[17] = test system: large crabgrass (Digitaria sanguinalis, DIGSA); experiment: as above; conditions: post-emerge, 14 days after application, rating scale 0-100
Summary of the method: as §2

[18] = test system: redroot pigweed (Amaranthus retroflexus, AMARE); experiment: as above; conditions: post-emerge, 14 days after application
Summary of the method: as §2

[19] = test system: sicklepod (Cassia obtusifolia, CASOB); experiment: as above; conditions: post-emerge, 14 days after application, rating scale 0-100
Summary of the method: as §2

[20] = test system: velvetleaf (Abutilon theophrasti, ABUTH); experiment: as above; conditions: post-emerge, 14 days after application, rating scale 0-100
Summary of the method: as §2

[21] = test system: field corn (Zea mays L., var. Dekalb 535, CORN); experiment: Post-emerge test, crop safety; conditions: post-emerge, 14 days after application, rating scale 0-100
Summary of the method: as §1

[22] = test system: upland rice (Oryza sp., var. Tebonnet, RICE); experiment: Post-emerge test, crop safety; conditions: post-emerge, 14 days after application, rating scale 0-100
Summary of the method: as §1

[23] = 250 g ai/ha, rating scale 0-100

CCOC(=O)C(C)Oc1ccc(-n2c(=O)cc(C(F)(F)F)n(C)c2=O)c(NC(=O)c2ccc3ccccc3c2)c1 (stereo not shown) [2-146]
0: phytotoxicity rating ECHCG ([2]; 63 g ai/ha) | phytotoxicity rating ECHCG ([2]; 250 g ai/ha) | phytotoxicity rating SETVI ([3]; 63 g ai/ha) | phytotoxicity rating SETVI ([3]; 250 g ai/ha) | phytotoxicity rating SORHA ([5]; 63 g ai/ha) | phytotoxicity rating SORHA ([5]; 250 g ai/ha) | phytotoxicity rating DIGSA ([7]; 63 g ai/ha) | phytotoxicity rating DIGSA ([7]; 250 g ai/ha) | phytotoxicity rating CASOB ([8]; 250 g ai/ha) | phytotoxicity rating CORN (crop damage) ([10]; 63 g ai/ha) | phytotoxicity rating CORN (crop damage) ([10]; 250 g ai/ha) | phytotoxicity rating RICE (crop damage) ([11]; 63 g ai/ha) | phytotoxicity rating RICE (crop damage) ([11]; 250 g ai/ha) | ECHCG phytotoxicity rating ([12]; 63 g ai/ha) | ECHCG phytotoxicity rating ([12]; 250 g ai/ha) | SETVI phytotoxicity rating ([13]; 63 g ai/ha) | SETVI phytotoxicity rating ([13]; 250 g ai/ha) | SORHA phytotoxicity rating ([15]; 63 g ai/ha) | SORHA phytotoxicity rating ([15]; 250 g ai/ha) | DIGSA phytotoxicity rating ([17]; 63 g ai/ha) | DIGSA phytotoxicity rating ([17]; 250 g ai/ha)
20: phytotoxicity rating IPOHE ([4]; 250 g ai/ha) | phytotoxicity rating CASOB ([8]; 63 g ai/ha) | CASOB phytotoxicity rating ([19]; 63 g ai/ha)
10: phytotoxicity rating ABUTH ([9]; 250 g ai/ha) | CORN phytotoxicity rating (crop damage) ([21]; 63 g ai/ha) | RICE phytotoxicity rating (crop damage) ([22]; 63 g ai/ha) | RICE phytotoxicity rating (crop damage) ([22]; 250 g ai/ha)
100: phytotoxicity rating CHEAL ([6]; 250 g ai/ha)
80: phytotoxicity rating AMARE ([1]; 250 g ai/ha)
75: ABUTH phytotoxicity rating ([20]; 250 g ai/ha)
90: phytotoxicity rating CHEAL ([6]; 63 g ai/ha)
70: phytotoxicity rating ABUTH ([9]; 63 g ai/ha) | ABUTH phytotoxicity rating ([20]; 63 g ai/ha)
5: CORN phytotoxicity rating (crop damage) ([21]; 250 g ai/ha)
50: IPOHE phytotoxicity rating ([14]; 250 g ai/ha) | CASOB phytotoxicity rating ([19]; 250 g ai/ha)
30: phytotoxicity rating AMARE ([1]; 63 g ai/ha) | CHEAL phytotoxicity rating ([16]; 63 g ai/ha) | AMARE phytotoxicity rating ([18]; 63 g ai/ha, rating scale 0-100) | AMARE phytotoxicity rating [18, 23]
40: phytotoxicity rating IPOHE ([4]; 63 g ai/ha) | IPOHE phytotoxicity rating ([14]; 63 g ai/ha) | CHEAL phytotoxicity rating ([16]; 250 g ai/ha)

CCc1ccc(COC(=O)Nc2c(OC)c(Cl)cc(F)c2-n2c(=O)cc(C(F)(F)F)n(C)c2=O)cc1 [4-31]
40: Pre-emerge Herbicidal Activity IPOHE ([4]; 250 g ai/ha) | phytotoxicity rating SETVI ([13]; 250 g ai/ha) | phytotoxicity rating RICE (crop damage) ([22]; 250 g ai/ha)
50: Pre-emerge Herbicidal Activity DIGSA ([7]; 63 g ai/ha)
90: Pre-emerge Herbicidal Activity SETVI ([3]; 63 g ai/ha) | Pre-emerge Herbicidal Activity CHEAL ([6]; 63 g ai/ha)
25: phytotoxicity rating CORN (crop damage) ([21]; 250 g ai/ha)
30: Pre-emerge Herbicidal Activity ECHCG ([2]; 250 g ai/ha) | Pre-emerge Herbicidal Activity ABUTH ([9]; 63 g ai/ha) | Pre-emerge Herbicidal Activity RICE ([11]; 250 g ai/ha) | phytotoxicity rating CASOB ([19]; 250 g ai/ha)
10: Pre-emerge Herbicidal Activity ECHCG ([2]; 63 g ai/ha) | Pre-emerge Herbicidal Activity SORHA ([5]; 63 g ai/ha) | Pre-emerge Herbicidal Activity CASOB ([8]; 250 g ai/ha) | Pre-emerge Herbicidal Activity CORN ([10]; 250 g ai/ha) | Pre-emerge Herbicidal Activity RICE ([11]; 63 g ai/ha) | phytotoxicity rating ECHCG ([12]; 63 g ai/ha) | phytotoxicity rating ECHCG ([12]; 250 g ai/ha) | phytotoxicity rating SORHA ([15]; 250 g ai/ha) | phytotoxicity rating DIGSA ([17]; 250 g ai/ha) | phytotoxicity rating CASOB ([19]; 63 g ai/ha) | phytotoxicity rating CORN (crop damage) ([21]; 63 g ai/ha)
100: Pre-emerge Herbicidal Activity AMARE ([1]; 63 g ai/ha) | Pre-emerge Herbicidal Activity AMARE ([1]; 250 g ai/ha) | Pre-emerge Herbicidal Activity SETVI ([3]; 250 g ai/ha) | Pre-emerge Herbicidal Activity CHEAL ([6]; 250 g ai/ha) | Pre-emerge Herbicidal Activity DIGSA ([7]; 250 g ai/ha) | Pre-emerge Herbicidal Activity ABUTH ([9]; 250 g ai/ha) | phytotoxicity rating IPOHE ([14]; 63 g ai/ha) | phytotoxicity rating IPOHE ([14]; 250 g ai/ha) | phytotoxicity rating CHEAL ([16]; 63 g ai/ha) | phytotoxicity rating CHEAL ([16]; 250 g ai/ha) | phytotoxicity rating AMARE ([18]; 63 g ai/ha, rating scale 0-100 (0 no damage, 100 complete death)) | phytotoxicity rating AMARE [18, 23] | phytotoxicity rating ABUTH ([20]; 63 g ai/ha) | phytotoxicity rating ABUTH ([20]; 250 g ai/ha)
0: Pre-emerge Herbicidal Activity IPOHE ([4]; 63 g ai/ha) | Pre-emerge Herbicidal Activity CASOB ([8]; 63 g ai/ha) | Pre-emerge Herbicidal Activity CORN ([10]; 63 g ai/ha) | phytotoxicity rating SORHA ([15]; 63 g ai/ha) | phytotoxicity rating DIGSA ([17]; 63 g ai/ha)
20: Pre-emerge Herbicidal Activity SORHA ([5]; 250 g ai/ha) | phytotoxicity rating SETVI ([13]; 63 g ai/ha) | phytotoxicity rating RICE (crop damage) ([22]; 63 g ai/ha)
